Source: US10792282B2, “Protein kinase C inhibitors and uses thereof” (Rigel Pharmaceuticals, Inc., priority 2013, dated 2020)
Like-named read-outs stand apart in the source and are kept apart here.

Test system: PKC mediated IL-2 production
Assay: IL-2 ELISA, human primary T cell, anti CD3+CD28+ (whole cell functional assay)
Assay type: cell-based
Method: Human primary T cells were prepared as follows. Fresh PBMC's from All Cells (Cat # PB002) were re-suspended in RPMI (RPMI-1640 with L-Glutamine; Mediatech, Inc., Herndon Va., cat. #10-040-CM) with 10% FBS and seeded into flasks and incubated at 37° C. for 2 hours to allow the monocytes to adhere. The non-adherent cells were then centrifuged and re-suspended in RPMI medium containing 40 U/ml IL2 and seeded into a flask pre-coated with 1 μg/ml aCD3 and 5 ug/ml aCD28 (Anti-Human CD3, BD Pharmingen Catalog #555336, Anti-Human CD28, Beckman Coulter Catalog # IM1376). The cells were stimulated for 3-4 days, then transferred to a fresh flask and maintained in RPMI (RPMI-1640 with L-Glutamine; Mediatech, Inc., Herndon Va., cat. #10-040-CM) with 10% FBS and 40 U/ml IL-2.
(§1) Human primary T cells (100,000 cells per well) were pre-incubated with or without test compound in RPMI-1640 with L-Glutamine and 10% FBS for 1 hour at 37° C. Cells were then stimulated by transferring them to round-bottom 96-well plates pre-coated with 1 μg/ml αCD3 and 5 μg/ml αCD28. For counter assay, cells were instead stimulated by adding 8× stock solutions of PMA and ionomycin in RPMI-1640 with L-Glutamine and 10% FBS (for final concentrations of 0.5 ng/ml PMA and 0.1 μM ionomycin, both from Calbiochem). Cells were incubated at 37° C. for 24 hours before 100 μL supernatants were harvested for quantification of IL-2 by ELISA using Human IL-2 Duoset ELISA Kit from R and D Systems, Cat. # DY202E.
Compounds 1-90 were tested in a whole cell functional assay for PKC mediated IL-2 production as follows. Human primary T cell isolation and culture: Human primary T cells were prepared as follows. Whole blood was obtained from a healthy volunteer, mixed 1:1 with PBS, layered on to Ficoll Hypaque (Amersham Pharmacia Biotech, Piscataway, N.J., Catalog #17-1440-03) in 2:1 blood/PBS:ficoll ratio and centrifuged for 30 minutes at 4° C. at 1750 rpm. The cells at the serum: ficoll interface were recovered and washed twice with 5 volumes of PBS. These freshly isolated human peripheral blood mononuclear cells were cultured in Yssel's medium containing 40 U/ml IL2 in a flask pre-coated with 1 μg/ml αCD3 and 5 μg/ml αCD28 (Anti-Human CD3, BD Pharmingen Catalog #555336, Anti-Human CD28, Beckman Coulter Catalog # IM1376). The cells were stimulated for 3-4 days, then transferred to a fresh flask and maintained in RPMI (RPMI-1640 with L-Glutamine; Mediatech, Inc., Herndon Va., cat. #10-040-CM) with 10% FBS and 40 U/ml IL-2. The primary T-cells were then washed twice with PBS to remove the IL-2.
as §1, with “Primary T cell stimulation and IL2 ELISA: Human primary” for “Human primary”, “compound in Yssel's medium for 1” for “compound in RPMI-1640 with L-Glutamine and 10% FBS for 1”, “ionomycin in Yssels (for final” for “ionomycin in RPMI-1640 with L-Glutamine and 10% FBS (for final”, “and 0.1 uM ionomycin, both” for “and 0.1 μM ionomycin, both”

[1] = IL-2 production, human primary T cells stimulated with αCD3 and αCD28, 24 hours, IL-2 by ELISA, read-out: EC50
[2] = Homo sapiens, T-cell, 24 h, IL-2 production, human primary T cells stimulated with αCD3 and αCD28, 24 hours, IL-2 by ELISA, read-out: EC50
[3] = Homo sapiens, T-cell, human primary T cells stimulated with αCD3 and αCD28, IL-2 by ELISA, read-out: EC50 (blocked IL-2 production)

## COc1cc(Nc2ncc(F)c(NC3CC4CCCN4C(C)(C)C3)n2)cc(-n2nnnc2C)c1 (stereo not drawn) [Compound 12, (R/S, S/R, R/R, S/S)-5-fluoro-N4-(octahydro-5,5-dimethylindolizin-7-yl)N2-(3-methoxy-5-(5-methyl-1H-tetrazol-1-yl)phenyl)pyrimidine-2,4-diamine]
[1]
  EC50: < 1 µM

## Cc1ncc(Nc2ncc(F)c(NC3CC4CCCN4C(C)(C)C3)n2)cc1-n1nnnc1C (stereo not drawn) [Compound 15]
[1]
  EC50: < 0.5 µM

## Cn1nnn(-c2cc(Nc3ncc(F)c(N[C@H]4C[C@H]5CCCN5C(C)(C)C4)n3)c(F)cc2C2CC2)c1=O [Compound 18, 1-(5-(4-((7S,8aR)-octahydro-5,5-dimethylindolizin-7ylamino)-5-fluoropyrimidin-2-ylamino)-2-cyclopropyl-4-fluorophenyl)-4-methyl-1H-tetrazol-5(4H)-one]
[2]
  EC50: < 1 µM
[3]
  EC50: < 10 µM

## COc1cc(F)c(Nc2ncc(F)c(N[C@@H]3C[C@@H]4CCCN4C(C)(C)C3)n2)cc1-n1nnn(C)c1=O [Compound 22, 1-(5-(4-((7R,8aS)-5,5-dimethyl-octahydroindolizin-7-ylamino)-5-fluoropyrimidin-2-ylamino)-4-fluoro-2-methoxyphenyl)-4-methyl-1H-tetrazol-5(4H)-one]
[2]
  EC50: < 0.5 µM
[3]
  EC50: < 10 µM

## CC(C)Oc1cc(F)c(Nc2ncc(F)c(N[C@@H]3C[C@@H]4CCCN4C(C)(C)C3)n2)cc1-n1nnn(C)c1=O [Compound 23, 1-(5-(4-((7R,8aS)-5,5-dimethyl-octahydroindolizin-7-ylamino)-5-fluoropyrimidin-2-ylamino)-4-fluoro-2-isopropoxyphenyl)-4-methyl-1H-tetrazol-5(4H)-one]
[2]
  EC50: < 0.1 µM
[3]
  EC50: < 10 µM

## Cn1nnn(-c2cc(Nc3ncc(F)c(NC4CCN5C(CCC5(C)C)C4)n3)c(F)cc2C2CC2)c1=O (stereo not drawn) [Compound 26]
[2]
  EC50: < 10 µM
[3]
  EC50: < 10 µM

## Cn1nnn(-c2cc(Nc3ncc(F)c(NC4CCN5CCCC5C4)n3)c(F)cc2C2CC2)c1=O (stereo not drawn) [Compound 29]
[1]
  EC50: < 10 µM

## Cn1nnn(-c2cc(Nc3ncc(F)c(NC4CC(=O)N5C(CCC5(C)C)C4)n3)c(F)cc2C2CC2)c1=O (stereo not drawn) [Compound 30]
[2]
  EC50: > 10 µM
[3]
  EC50: < 10 µM

## Cn1nnn(-c2cc(Nc3ncc(F)c(N[C@H]4C[C@@H]5CC(F)(F)CN5C(C)(C)C4)n3)c(F)cc2C2CC2)c1=O [Compound 42, 1-(5-(4-((7S,8aR)-2,2-difluoro-octahydro-5,5-dimethylindolizin-7-ylamino)-5-fluoropyrimidin-2-ylamino)-2-cyclopropyl-4-fluorophenyl)-4-methyl-1H-tetrazol-5(4H)-one]
[2]
  EC50: < 10 µM
[3]
  EC50: < 10 µM

## CC1(C)C[C@@H](Nc2nc(Nc3cc(-n4cnnn4)c(C4CC4)cc3F)ncc2F)C[C@@H]2CC(F)(F)CN21 [Compound 43, N^2-(4-cyclopropyl-2-fluoro-5-(1H-tetrazol-1-yl)phenyl)-5-fluoro-N^4-((7S,8aR)-2,2-difluoro-octahydro-5,5-dimethylindolizin-7-yl)pyrimidine-2,4-diamine]
[2]
  EC50: < 10 µM
[3]
  EC50: < 10 µM

## Cc1ccc(Nc2ncc(F)c(N[C@H]3C[C@@H]4CC(F)(F)CN4C(C)(C)C3)n2)cc1C#N [Compound 44, (4-((7S,8aR)-2,2-difluoro-octahydro-5,5-dimethylindolizin-7-ylamino)-5-fluoropyrimidin-2-ylamino)-2-methylbenzonitrile]
[2]
  EC50: < 10 µM
[3]
  EC50: < 10 µM

## Cn1nnn(-c2cc(Nc3ncc(F)c(N[C@@H]4C[C@@H]5CC(F)(F)CN5C(C)(C)C4)n3)c(F)cc2C2CC2)c1=O [Compound 45, 1-(5-(4-((7R,8aR)-2,2-difluoro-octahydro-5,5-dimethylindolizin-7-ylamino)-5-fluoropyrimidin-2-ylamino)-2-cyclopropyl-4-fluorophenyl)-4-methyl-1H-tetrazol-5(4H)-one]
[2]
  EC50: < 10 µM
[3]
  EC50: < 10 µM

## CC1(C)C[C@H](Nc2nc(Nc3cc(-n4cnnn4)c(C4CC4)cc3F)ncc2F)C[C@@H]2CC(F)(F)CN21 [Compound 46, N^2-(4-cyclopropyl-2-fluoro-5-(1H-tetrazol-1-yl)phenyl)-5-fluoro-N^4-((7R,8aR)-2,2-difluoro-octahydro-5,5-dimethylindolizin-7-yl)pyrimidine-2,4-diamine]
[2]
  EC50: < 1 µM
[3]
  EC50: < 10 µM

## Cn1nnn(-c2cc(Nc3ncc(F)c(NC4CC5CCCN5C(C)(C)C4)n3)ccc2O[C@@H]2CCOC2)c1=O (stereo partly drawn) [Compound 47, 1-(2-((R)-tetrahydrofuran-3-yloxy)-5-(5-fluoro-4-(octahydro-5,5-dimethylindolizin-7-ylamino)pyrimidin-2-ylamino)phenyl)-4-methyl-1H-tetrazol-5(4H)-one]
[2]
  EC50: < 0.1 µM
[3]
  EC50: < 10 µM

## Cn1nnn(-c2cc(Nc3ncc(F)c(N[C@@H]4C[C@@H]5CCCN5C(C)(C)C4)n3)ccc2O[C@@H]2CCOC2)c1=O [Compound 48, 1-(2-((R)-tetrahydrofuran-3-yloxy)-5-(5-fluoro-4-(octahydro-5,5-dimethylindolizin-7-ylamino)pyrimidin-2-ylamino)phenyl)-4-methyl-1H-tetrazol-5(4H)-one]
[2]
  EC50: < 0.1 µM
[3]
  EC50: < 10 µM

## Cn1nnn(-c2cc(Nc3ncc(F)c(NC4CC5CCCN5C(C)(C)C4)n3)ccc2O[C@H]2CCOC2)c1=O (stereo partly drawn) [Compound 49, 1-(2-((S)-tetrahydrofuran-3-yloxy)-5-(5-fluoro-4-(octahydro-5,5-dimethylindolizin-7-ylamino)pyrimidin-2-ylamino)phenyl)-4-methyl-1H-tetrazol-5(4H)-one]
[2]
  EC50: < 0.1 µM
[3]
  EC50: < 10 µM

## Cn1nnn(-c2cc(Nc3ncc(F)c(N[C@@H]4C[C@@H]5CCCN5C(C)(C)C4)n3)ccc2O[C@H]2CCOC2)c1=O [Compound 50, 1-(2-((S)-tetrahydrofuran-3-yloxy)-5-(5-fluoro-4-(octahydro-5,5-dimethylindolizin-7-ylamino)pyrimidin-2-ylamino)phenyl)-4-methyl-1H-tetrazol-5(4H)-one]
[2]
  EC50: < 0.1 µM
[3]
  EC50: < 10 µM

## Cn1nnn(-c2cc(Nc3ncc(F)c(N[C@@H]4C[C@@H]5CCCN5C(C)(C)C4)n3)ccc2OC2CCOCC2)c1=O [Compound 52, 1-(5-(5-fluoro-4-(octahydro-5,5-dimethylindolizin-7-ylamino)pyrimidin-2-ylamino)-2-(tetrahydro-2H-pyran-4-yloxy)phenyl)-4-methyl-1H-tetrazol-5(4H)-one]
[2]
  EC50: < 0.5 µM
[3]
  EC50: < 10 µM

## CC1(C)CC(Nc2nc(Nc3ccc(O[C@@H]4CCOC4)c(C#N)c3)ncc2F)CC2CCCN21 (stereo partly drawn) [Compound 57, 2-((R)-tetrahydrofuran-3-yloxy)-5-(5-fluoro-4-(octahydro-5,5-dimethylindolizin-7-ylamino)pyrimidin-2-ylamino)benzonitrile]
[2]
  EC50: < 0.5 µM
[3]
  EC50: < 10 µM

## CC1(C)CC(Nc2nc(Nc3ccc(O[C@H]4CCOC4)c(C#N)c3)ncc2F)CC2CCCN21 (stereo partly drawn) [Compound 60, 2-((S)-tetrahydrofuran-3-yloxy)-5-(5-fluoro-4-(octahydro-5,5-dimethylindolizin-7-ylamino)pyrimidin-2-ylamino)benzonitrile]
[2]
  EC50: < 0.5 µM
[3]
  EC50: < 10 µM

## Cn1nnn(-c2cc(Nc3ncc(F)c(N[C@@H]4C[C@@H]5C[C@@H](F)CN5C(C)(C)C4)n3)c(F)cc2C2CC2)c1=O [Compound 64, 1-(5-(4-((2R,7R,8aR)-2-fluoro-octahydro-5,5-dimethylindolizin-7-ylamino)-5-fluoropyrimidin-2-ylamino)-2-cyclopropyl-4-fluorophenyl)-4-methyl-1H-tetrazol-5(4H)-one]
[2]
  EC50: < 0.5 µM
[3]
  EC50: < 10 µM
